Like-named read-outs stand apart in the source and are kept apart here.
Tests used:
[1] = tested on: Pasteurella multocida; experiment: Treatment of Pasteurella infections in chicks (Table V); type: in vivo, one-day-old chicks; conditions: Pasteurella multocida, sc, 4 h; 30 mg/kg by subcutaneous injection one and four hours post challenge; read-out: Deaths in Treated Chicks/Number Treated (converted)
In short: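 One-day-old chicks challenged subcutaneously with avian P. multocida (0.1 ml of 10^-3 dilution of 20-hour tryptose broth culture). Esters given at 30 mg/kg subcutaneously at 1 and 4 hours post challenge. Untreated infected controls, ten per group.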

[2] = tested on: Mycoplasma gallisepticum; experiment: MIC, broth-dilution microtiter test (Table III); type: cell-based; set-up: unit not given here
Protocol: (§1) The MIC's in Table II were determined by standard agar-dilution assays. The MIC's in Table III were obtained using a conventional broth-dilution microtiter test.

[3] = tested on: Pasteurella haemolytica 23C; experiment: MIC, broth-dilution microtiter test (Table III); type: cell-based; set-up: unit not given here
Protocol: as §1

[4] = tested on: Pasteurella haemolytica 41D; experiment: MIC, broth-dilution microtiter test (Table III); type: cell-based; set-up: unit not given here
Protocol: as §1

[5] = tested on: Staphylococcus aureus; experiment: MIC, broth-dilution microtiter test (Table III); type: cell-based; set-up: unit not given here
Protocol: as §1

[6] = tested on: Pasteurella multocida 17E; experiment: MIC, broth-dilution microtiter test (Table III); type: cell-based; set-up: unit not given here; conditions: bovine isolate
Protocol: as §1

[7] = tested on: Streptococcus sp. 80; experiment: MIC, broth-dilution microtiter test (Table III); type: cell-based; set-up: unit not given here
Protocol: as §1

[8] = tested on: Pasteurella multocida 22A; experiment: MIC, broth-dilution microtiter test (Table III); type: cell-based; set-up: unit not given here
Protocol: as §1

[9] = tested on: Mycoplasma hyorhinis; experiment: MIC, broth-dilution microtiter test (Table III); type: cell-based; set-up: unit not given here
Protocol: as §1

[10] = tested on: Mycoplasma synoviae; experiment: MIC, broth-dilution microtiter test (Table III); type: cell-based; set-up: unit not given here
Protocol: as §1

[11] = tested on: Pasteurella multocida 60A; experiment: MIC, broth-dilution microtiter test (Table III); type: cell-based; set-up: unit not given here; conditions: avian isolate
Protocol: as §1

[12] = tested on: Pasteurella multocida 68C; experiment: MIC, broth-dilution microtiter test (Table III); type: cell-based; set-up: unit not given here
Protocol: as §1

[13] = tested on: Pasteurella multocida 40G; experiment: MIC, broth-dilution microtiter test (Table III); type: cell-based; set-up: unit not given here
Protocol: as §1

[14] = tested on: Pasteurella haemolytica 22C; experiment: MIC, broth-dilution microtiter test (Table III); type: cell-based; set-up: unit not given here
Protocol: as §1

[15] = tested on: Haemophilus influenzae Holt; experiment: MIC, standard agar-dilution assay (Table II); type: cell-based; set-up: unit not given here; conditions: ampicillin-sensitive strain
Protocol: as §1

[16] = tested on: Staphylococcus epidermidis EPI1; experiment: MIC, standard agar-dilution assay (Table II); type: cell-based; set-up: unit not given here
Protocol: as §1

[17] = tested on: Staphylococcus epidermidis EPI2; experiment: MIC, standard agar-dilution assay (Table II); type: cell-based; set-up: unit not given here
Protocol: as §1

[18] = tested on: Haemophilus influenzae R252; experiment: MIC, standard agar-dilution assay (Table II); type: cell-based; set-up: unit not given here; conditions: Haemophilus influenzae R252, ampicillin-resistant strain
Protocol: as §1

[19] = tested on: Streptococcus pneumoniae Park I; experiment: MIC, standard agar-dilution assay (Table II); type: cell-based; set-up: unit not given here
Protocol: as §1

[20] = tested on: Staphylococcus aureus V41; experiment: MIC, standard agar-dilution assay (Table II); type: cell-based; set-up: unit not given here; conditions: Staphylococcus aureus V41, penicillin-resistant strain
Protocol: as §1

[21] = tested on: Streptococcus Group D 9960; experiment: MIC, standard agar-dilution assay (Table II); type: cell-based; set-up: unit not given here
Protocol: as §1

[22] = tested on: Staphylococcus aureus S13E; experiment: MIC, standard agar-dilution assay (Table II); type: cell-based; set-up: unit not given here
Protocol: as §1

[23] = tested on: Streptococcus pyogenes C203; experiment: MIC, standard agar-dilution assay (Table II); type: cell-based; set-up: unit not given here
Protocol: as §1

[24] = tested on: Staphylococcus aureus X1.1; experiment: MIC, standard agar-dilution assay (Table II); type: cell-based; set-up: unit not given here
Protocol: as §1

[25] = tested on: Streptococcus Group D X66; experiment: MIC, standard agar-dilution assay (Table II); type: cell-based; set-up: unit not given here
Protocol: as §1

[26] = tested on: Staphylococcus aureus X400; experiment: MIC, standard agar-dilution assay (Table II); type: cell-based; set-up: unit not given here; conditions: Staphylococcus aureus X400, methicillin-resistant strain
Protocol: as §1

[27] = tested on: Streptococcus pyogenes C203; experiment: ED50 in mice with experimental infections (Table IV); type: in vivo; conditions: Streptococcus pyogenes, doses given 1 and 4 hours postinfection
In short: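 Mice with experimental infections received test compound twice, at 1 and 4 h postinfection. ED50 is the dose in mg/kg (per administration, ×2) protecting 50% of animals.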

[28] = C203, oral, read-out: ED50, Oral
[29] = C203, sc, subcutaneous, read-out: ED50, Subcutaneous

Row | Structure (SMILES) | mortality at 30 mg/kg [1] | minimal inhibitory concentration (MIC) [2] | minimal inhibitory concentration (MIC) [3] | minimal inhibitory concentration (MIC) [4] | minimal inhibitory concentration (MIC) [5] | minimal inhibitory concentration (MIC) [6] | minimal inhibitory concentration (MIC) [7] | minimal inhibitory concentration (MIC) [8] | minimal inhibitory concentration (MIC) [9] | minimal inhibitory concentration (MIC) [10] | minimal inhibitory concentration (MIC) [11] | minimal inhibitory concentration (MIC) [12] | minimal inhibitory concentration (MIC) [13] | minimal inhibitory concentration (MIC) [14] | minimal inhibitory concentration (MIC) [15] | minimal inhibitory concentration (MIC) [16] | minimal inhibitory concentration (MIC) [17] | minimal inhibitory concentration (MIC) [18] | minimal inhibitory concentration (MIC) [19] | minimal inhibitory concentration (MIC) [20] | other results
1 | CCC1OC(=O)CC(O)C(C)C(OC2OC(C)C(OC(=O)CC(C)C)C(N(C)C)C2OC(C)=O)C(CC=O)CC(C)C(=O)C=CC(C)=CC1CO (centres unmarked) [Compound 49, 2'-O-Acetyl-4'-O-isovaleryl-OMT] | 100% | 1.56 | 12.5 | 12.5 | 3.12 | 3.12 | 0.39 | 6.25 | 6.25 | 0.78 | 3.12 | 25 | 3.12 | 12.5 | 1 | 1 | 2 | 1 | 0.125 | 2 | minimal inhibitory concentration (MIC) [21]: 1; minimal inhibitory concentration (MIC) [22]: 2; minimal inhibitory concentration (MIC) [23]: 0.25; minimal inhibitory concentration (MIC) [24]: 1; minimal inhibitory concentration (MIC) [25]: 1; minimal inhibitory concentration (MIC) [26]: 4; ED50 [27, 28]: > 100 mg/kg; ED50 [27, 29]: > 30 mg/kg
2 | CCC1OC(=O)CC(O)C(C)C(OC2OC(C)C(O)C(N(C)C)C2OC(C)=O)C(CC=O)CC(C)C(=O)C=CC(C)=CC1COC(C)=O (centres unmarked) [Compound 9] | 0% | < 0.78 | 3.12 | 3.12 | 0.78 | 1.56 | 0.195 | 6.25 | 1.56 | 0.097 | 1.56 | 3.12 | 1.56 | 3.12 | 1 | 0.25 | 0.25 | 4 | 0.125 | 0.5 | minimal inhibitory concentration (MIC) [21]: 0.5; minimal inhibitory concentration (MIC) [22]: 0.25; minimal inhibitory concentration (MIC) [23]: 0.25; minimal inhibitory concentration (MIC) [24]: 0.45; minimal inhibitory concentration (MIC) [25]: 0.5; minimal inhibitory concentration (MIC) [26]: 0.5; ED50 [27, 28]: 137 mg/kg; ED50 [27, 29]: 6.4 mg/kg
3 | CCC(=O)OCC1C=C(C)C=CC(=O)C(C)CC(CC=O)C(OC2OC(C)C(O)C(N(C)C)C2OC(C)=O)C(C)C(O)CC(=O)OC1CC (centres unmarked) [Compound 12, 2'-O-Acetyl-23-O-propionyl-OMT] | 0% | < 0.05 | 3.12 | 3.12 | 0.39 | 1.56 | 0.39 | 0.78 | 3.12 | < 0.05 | 1.56 | 1.56 | 0.78 | 6.25 | 2 | 0.25 | 0.25 | 8 | 0.125 | 0.5 | minimal inhibitory concentration (MIC) [21]: 0.5; minimal inhibitory concentration (MIC) [22]: 0.5; minimal inhibitory concentration (MIC) [23]: 0.25; minimal inhibitory concentration (MIC) [24]: 0.5; minimal inhibitory concentration (MIC) [25]: 0.5; minimal inhibitory concentration (MIC) [26]: 0.5; ED50 [27, 28]: 150 mg/kg; ED50 [27, 29]: 8.1 mg/kg
4 | CCC1OC(=O)CC(O)C(C)C(OC2OC(C)C(O)C(N(C)C)C2O)C(CC=O)CC(C)C(=O)C=CC(C)=CC1COC(=O)NCc1ccccc1 (centres unmarked) [Compound 76] | 100% | 0.097 | 3.12 | 3.12 | 0.39 | 6.25 | 0.39 | > 50 | 0.78 | < 0.048 | 6.25 | 3.12 | 6.25 | 6.25 | 0.5 | 0.125 | 0.125 | 1 | 0.015 | 0.125 | minimal inhibitory concentration (MIC) [21]: 0.125; minimal inhibitory concentration (MIC) [22]: 0.125; minimal inhibitory concentration (MIC) [23]: 0.06; minimal inhibitory concentration (MIC) [24]: 0.125; minimal inhibitory concentration (MIC) [25]: 0.25; minimal inhibitory concentration (MIC) [26]: 0.25; ED50 [27, 28]: > 100 mg/kg; ED50 [27, 29]: 25 mg/kg
5 | CCC1OC(=O)CC(O)C(C)C(OC2OC(C)C(O)C(N(C)C)C2O)C(CC=O)CC(C)C(=O)C=CC(C)=CC1COS(=O)(=O)c1ccc(C)cc1 (centres unmarked) [Compound 46] | 80% | 0.05 | 3.12 | 3.12 | 0.195 | 3.12 | 0.097 | 6.25 | 0.78 | 0.097 | 1.56 | 3.12 | 6.25 | 3.12 | 1 | 0.25 | 0.25 | 1 | 0.03 | 0.25 | minimal inhibitory concentration (MIC) [21]: 0.25; minimal inhibitory concentration (MIC) [22]: 0.25; minimal inhibitory concentration (MIC) [23]: 0.125; minimal inhibitory concentration (MIC) [24]: 0.25; minimal inhibitory concentration (MIC) [25]: 0.25; minimal inhibitory concentration (MIC) [26]: 0.25; ED50 [27, 28]: 146 mg/kg; ED50 [27, 29]: 15 mg/kg

Source: patent US4401660A, “Ester derivatives of 5-O-mycaminosyl tylonolide and method of using same” (Eli Lilly and Company, priority 1981, dated 1983)
